Six compounds from US20220170930A1, “METHOD FOR SCREENING COMPOUND FOR TREATING OR PREVENTING POLYQ-RELATED NEURODEGENERATIVE DISEASES” (FUDAN UNIVERSITY, priority 2019, published 2022) can be followed below.

Data set [1] deals with mHTT. As to the kind of experiment: HTRF mHTT level in HD patient immortalized fibroblasts. As to conditions: for mHTT level: c-Raf inhibitors and KSP inhibitors at 100 nM; for mHTT levels, comparison of FIG. 9: concentrations below the micromolar level.
Procedure: Homogeneous time-resolved fluorescence (HTRF) analysis: the cell or tissue lysate was diluted with the original lysis buffer PBS+1% (v/v) Triton X-100+1×cOmplete™ protease inhibitor to lyse the sample, then HTRF assay buffer (50 mM NaH2PO4, 400 mM NaF, 0.1% BSA, 0.05% (v/v) Tween-20, 1% (v/v) Triton X-100, pH 7.4) was used to dilute the specified antibody pair for detection.
The immortalized fibroblasts of HD patients were treated using the above-mentioned c-Raf inhibitors and KSP inhibitors respectively at a concentration of 100 nM.
Data set [2] concerns mHTT. As to the kind of experiment: Intracerebroventricular injection, mHTT and wtHTT in cortices of HD mice. In kind it is in vivo, mouse. Particulars: mouse, in vivo. Here is the method:
Experimental animals: Hdh^Q140/Q7 mice (3 months old), 4 in each group.
Each test includes three repetitions for each sample, and the mean values was calculated (FIG. 16).

The test system of data set [3] is SQSTM1/p62. As to the kind of experiment: SQSTM1/p62 level in mouse cortices after ip injection. In kind it is in vivo. As to conditions: HD mice. Here is the method: Using a method similar to 6.2, Hdh^Q140/Q7 mice were administered with injections. A method similar to 7.1 was used to detect the effects of ip-injection of compounds on other known autophagy selective substrate proteins (SQSTM1/p62) in the cortical tissue of Hdh^Q140/Q7 mice.

Data set [4] deals with Q25-GFP. As to the kind of experiment: OI-RD affinity screening with Q25-GFP. In kind it is binding. Particulars: OI-RD difference images. The source says: (1) PolyQ-GFP cDNA sequence (expressing Met-polyQ-GFP, wherein polyQ was Q72 or Q25) was synthesized de novo and subcloned into pcDNA vector. […] And the same method was used to obtain cells expressing Q53-GFP, cells expressing Q46-GFP, and cells expressing Q38-GFP.

Data set [5] concerns GFP. As to the kind of experiment: OI-RD affinity screening with GFP. The data set is classed as binding. Particulars: OI-RD difference images. Here is the method: (§1) To identify compound(s) that can selectively bind to proteins containing expanded polyglutamine, screening was conducted using a method similar to 1.1, except for that the target protein HTTexon1-Q72-MBP in step (1) of 1.1 was replaced with the polyQ-GFP protein prepared in 10.1, and the target protein HTTexon1-Q25-MBP in step (2) of 1.1 was replaced with GFP.

Data set [6] relates to proteins with expanded polyglutamine (polyQ-GFP). As to the kind of experiment: OI-RD affinity screening with polyQ-GFP proteins. In kind it is binding. Particulars: OI-RD difference images. The procedure: as §1
For data set [7], the system named is polyQ-GFP (Q72-GFP, Q25-GFP). As to the kind of experiment: polyQ-GFP level in HEK293T cells by Incucyte fluorescence counting. Particulars: Q72-GFP vs Q25-GFP expressing HEK293T cells, 100 nM compound 1, 100 nM compound 3 or 50 nM compound 4, 2 days. The data set is classed as cell-based. An excerpt: (1) PolyQ-GFP cDNA sequence (expressing Met-polyQ-GFP, wherein polyQ was Q72 or Q25) was synthesized de novo and subcloned into pcDNA vector. It was transfected into HEK293T cells (ATCC, CRL-3216) through forward transfection to obtain Q72-GFP expressing cells and Q25-GFP expressing cells, respectively. And the same method was used to obtain cells expressing Q53-GFP, cells expressing Q46-GFP, and cells expressing Q38-GFP.
The Q72-GFP expressing cells and Q25-GFP expressing cells obtained in step (1) of 10.1 were used. […] Then the level of polyQ-GFP was measured by Incucyte fluorescence counting (FIG. 25).

For data set [8], the target named is T1, MBP-ATXN3-Q28 (Homo sapiens, UniProt P54252, INS305QQQQQQQQQQQQQQQQQQ).
T1 construct: His8 with TEV protease cleavage site; made in house; host or cells: Escherichia coli Rosetta(DE3)pLsyS
As to the kind of experiment: OI-RD affinity screening with MBP-ATXN3-Q28. As to conditions: OI-RD difference images. The data set is classed as binding. The procedure:
(§2) Screening was conducted using a method similar to 1.1, except for that the target protein HTTexon1-Q72-MBP in step (1) of 1.1 was replaced with MBP-ATXN3-Q68 and the target protein HTTexon1-Q25-MBP in step (2) of 1.1 was replaced with MBP-ATXN3-Q28, to obtain compounds that can selectively bind to ATXN3 with abnormally expanded polyQ (MBP-ATXN3-Q68).

Data set [9] concerns the target T1, MBP-ATXN3-Q28. As to the kind of experiment: MST affinity with MBP-ATXN3-Q28. In kind it is binding. The procedure:
Protein concentration was 500 nM.

In data set [10] the target is T2, mutant ATXN3 protein (ATXN3-Q74) (Homo sapiens, UniProt P54252, G306R/INS305QQQQQQQQQQQQQQQQQQQQQQQQQQQQQQQQQQQQQQQQQQQQQQQQQQQQQQQQQQQQQQQQ/V212M).
T2 construct: endogenous in cells; host or cells: SCA3 patient fibroblasts (Q74)
As to the kind of experiment: Western-blot mutant ATXN3 level in SCA3 patient fibroblasts. The data set is classed as cell-based. As to conditions: 100 nM (compound 4: 50 nM), 2 days. The procedure: (§3) Then the levels of mutant ATXN3 protein (ATXN3-Q74, SEQ ID NO: 2) and wild-type ATXN3 protein (ATXN3-Q27, SEQ ID NO: 7) were determined by Western-blots (FIG. 26). […] Therefore, the compound of the present invention can be used to treat SCA3.

Data set [11] concerns the target T3, wild-type ATXN3 protein (ATXN3-Q27) (Homo sapiens, UniProt P54252, G306R/INS305QQQQQQQQQQQQQQQQQ/V212M).
T3 construct: endogenous in cells; host or cells: wild-type fibroblasts (Q27) and/or the normal allele in SCA3 patient fibroblasts
As to the kind of experiment: Western-blot wild-type ATXN3 level in fibroblasts. The data set is classed as cell-based. As to conditions: 100 nM (compound 4: 50 nM), 2 days. Here is the method:
as §3

Data set [12] addresses T4, His-ATXN1-Q92 (Homo sapiens, UniProt P54253, INS208QQQQQQQQQQQQQQQQQQQQQQQQQQQQQQQQQQQQQQQQQQQQQQQQQQQQQQQQQQQQQQQQQQQQQQQQQQQQQQQQ).
T4 construct: made in house; host or cells: HEK293T cells (ATCC, CRL-3216)
As to the kind of experiment: OI-RD affinity screening with His-ATXN1-Q92. The data set is classed as binding. Particulars: OI-RD difference images. Here is the method:
(1) PolyQ-ATXN1 cDNA (where polyQ is Q92) was synthesized de novo and subcloned into pcDNA vector. It transfected into HEK293T cells (ATCC, CRL-3216) to obtain cells expressing His-ATXN1-Q92 (SEQ ID NO: 3 with a His tag at the N-terminal).
(2) The His-ATXN1-Q92 expressed in (1) was purified to obtain ATXN1 with abnormally expanded polyQ.
To identify compound(s) that can bind to ATXN1 with abnormally expanded polyQ, screening was conducted using a method similar to step (1) of 1.1, except for that the target protein HTTexon1-Q72-MBP in step (1) of 1.1 was replaced with His-ATXN1-Q92.

Data set [13] concerns the target T5, mutant ATXN1 protein (His-ATXN1-Q92) (Homo sapiens, UniProt P54253, INS208QQQQQQQQQQQQQQQQQQQQQQQQQQQQQQQQQQQQQQQQQQQQQQQQQQQQQQQQQQQQQQQQQQQQQQQQQQQQQQQQ).
T5 construct: expressed in transfected cells; host or cells: HEK293T cells (ATCC, CRL-3216)
As to the kind of experiment: HTRF mutant ATXN1 level in His-ATXN1-Q92-expressing cells. In kind it is cell-based. As to conditions: 100 nM, 2 days, anti-His-Tb/MW1-D2. Background: Time-resolved FRET reads energy transfer from a long-lived donor to a nearby acceptor.

Data set [14] is described as follows: in vivo. Particulars: mouse, ip, 0.5 mg/kg.
Procedure: Experimental method: The compound or control DMSO was diluted with 0.9% NaCl intravenous infusion solution to 0.05 μg/μL. One ip-injection (0.5 mg/kg) was conducted per day. After 14 days of injection, tissue extraction or behavioral experiment were conducted.
The subject of data set [15] is Q25-GFP. As to the kind of experiment: MST affinity with Q25-GFP.
Procedure: The affinity of the compound with full-length HTT and LC3B was verified with micro thermophoresis (MST) using Monolith NT.115 instrument from NanoTemper Technologies. The reaction buffer was 20 mM HEPES, pH 7.4, 150 mM NaCl.
The target in data set [16] is MBP-ATXN3-Q68 (Homo sapiens, UniProt P54252, INS305QQQQQQQQQQQQQQQQQQQQQQQQQQQQQQQQQQQQQQQQQQQQQQQQQQQQQQQQQQ). As to the kind of experiment: OI-RD affinity screening with MBP-ATXN3-Q68. In kind it is binding. Particulars: OI-RD difference images. Also on record: His8 with TEV protease cleavage site; made in house; host or cells: Escherichia coli Rosetta(DE3)pLsyS. Here is the method: as §2

Counter-ions that a name gives are not always drawn.

T1 sequence (P54252 with tags, fused parts or gaps isoform P54252-4 with the stated changes): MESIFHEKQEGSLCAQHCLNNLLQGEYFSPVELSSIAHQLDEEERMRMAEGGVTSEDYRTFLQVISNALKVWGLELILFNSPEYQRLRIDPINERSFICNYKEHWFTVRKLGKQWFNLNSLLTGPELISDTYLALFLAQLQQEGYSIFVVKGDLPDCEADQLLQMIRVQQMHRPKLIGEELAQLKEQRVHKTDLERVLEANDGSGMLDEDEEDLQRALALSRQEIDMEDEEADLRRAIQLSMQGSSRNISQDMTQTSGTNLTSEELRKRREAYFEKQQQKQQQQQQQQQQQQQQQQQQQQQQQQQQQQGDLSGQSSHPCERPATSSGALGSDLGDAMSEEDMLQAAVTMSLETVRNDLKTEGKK
T4 sequence (P54253 with tags, fused parts or gaps with the stated changes): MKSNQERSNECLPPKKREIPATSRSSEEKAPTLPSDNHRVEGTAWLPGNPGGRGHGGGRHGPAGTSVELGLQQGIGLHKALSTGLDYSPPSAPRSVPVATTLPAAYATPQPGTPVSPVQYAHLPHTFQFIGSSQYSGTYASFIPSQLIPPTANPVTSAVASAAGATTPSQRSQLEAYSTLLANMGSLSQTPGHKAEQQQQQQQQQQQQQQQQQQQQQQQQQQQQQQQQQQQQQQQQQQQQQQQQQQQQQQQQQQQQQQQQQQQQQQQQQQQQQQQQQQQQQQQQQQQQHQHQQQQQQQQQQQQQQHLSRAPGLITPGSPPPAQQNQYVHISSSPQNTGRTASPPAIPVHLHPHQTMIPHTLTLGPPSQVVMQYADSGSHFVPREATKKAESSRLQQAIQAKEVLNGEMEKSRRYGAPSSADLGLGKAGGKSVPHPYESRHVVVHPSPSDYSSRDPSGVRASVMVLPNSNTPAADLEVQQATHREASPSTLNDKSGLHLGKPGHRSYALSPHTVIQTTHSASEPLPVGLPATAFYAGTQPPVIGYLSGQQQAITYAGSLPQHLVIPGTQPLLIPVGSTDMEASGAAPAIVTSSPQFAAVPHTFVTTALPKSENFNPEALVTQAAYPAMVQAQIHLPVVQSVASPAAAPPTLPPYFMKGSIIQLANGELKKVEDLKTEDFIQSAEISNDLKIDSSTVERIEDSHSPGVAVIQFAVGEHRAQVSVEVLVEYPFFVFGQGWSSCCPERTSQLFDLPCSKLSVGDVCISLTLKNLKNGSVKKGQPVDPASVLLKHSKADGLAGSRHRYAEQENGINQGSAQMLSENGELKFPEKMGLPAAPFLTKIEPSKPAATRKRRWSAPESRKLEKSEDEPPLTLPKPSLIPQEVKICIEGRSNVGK
T5 sequence (P54253 with tags, fused parts or gaps with the stated changes): as above
T3 sequence (P54252 with tags, fused parts or gaps isoform P54252-1 with the stated changes): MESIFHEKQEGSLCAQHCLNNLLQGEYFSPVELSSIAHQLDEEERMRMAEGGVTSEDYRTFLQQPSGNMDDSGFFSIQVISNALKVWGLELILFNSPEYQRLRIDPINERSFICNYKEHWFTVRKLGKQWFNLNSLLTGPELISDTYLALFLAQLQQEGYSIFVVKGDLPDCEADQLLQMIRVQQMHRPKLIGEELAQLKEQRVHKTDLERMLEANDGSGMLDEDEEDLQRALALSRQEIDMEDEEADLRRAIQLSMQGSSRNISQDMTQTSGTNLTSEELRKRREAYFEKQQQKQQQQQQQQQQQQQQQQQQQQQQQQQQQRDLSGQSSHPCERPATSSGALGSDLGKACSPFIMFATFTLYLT
T2 sequence (P54252 with tags, fused parts or gaps isoform P54252-1 with the stated changes): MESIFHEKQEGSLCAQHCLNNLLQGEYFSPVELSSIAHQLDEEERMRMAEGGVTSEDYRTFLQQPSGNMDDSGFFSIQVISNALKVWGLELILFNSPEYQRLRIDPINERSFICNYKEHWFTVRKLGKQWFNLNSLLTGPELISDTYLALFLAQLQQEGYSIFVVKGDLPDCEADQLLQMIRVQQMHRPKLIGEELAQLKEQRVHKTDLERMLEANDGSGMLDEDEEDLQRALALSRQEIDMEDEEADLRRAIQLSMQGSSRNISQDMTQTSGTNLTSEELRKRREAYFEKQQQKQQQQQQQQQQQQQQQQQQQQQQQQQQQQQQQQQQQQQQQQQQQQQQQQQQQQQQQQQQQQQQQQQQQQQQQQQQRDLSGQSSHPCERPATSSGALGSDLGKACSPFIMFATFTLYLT
Sequence of MBP-ATXN3-Q68 (P54252 with tags, fused parts or gaps isoform P54252-4 with the stated changes): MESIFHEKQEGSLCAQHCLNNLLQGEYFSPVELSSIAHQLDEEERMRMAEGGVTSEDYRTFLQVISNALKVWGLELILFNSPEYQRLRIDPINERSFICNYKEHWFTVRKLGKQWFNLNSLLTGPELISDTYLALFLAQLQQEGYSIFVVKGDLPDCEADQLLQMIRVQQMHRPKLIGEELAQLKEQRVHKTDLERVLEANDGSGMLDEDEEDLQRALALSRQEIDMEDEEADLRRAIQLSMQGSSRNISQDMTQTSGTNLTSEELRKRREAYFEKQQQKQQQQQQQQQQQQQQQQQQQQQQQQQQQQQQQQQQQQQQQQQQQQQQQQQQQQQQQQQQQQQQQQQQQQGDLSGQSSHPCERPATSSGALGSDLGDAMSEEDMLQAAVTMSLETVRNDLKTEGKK

Take `CNC(=O)c1cc(Oc2ccc(NC(=O)Nc3ccc(Cl)c(C(F)(F)F)c3)cc2)ccn1` [Sorafenib Tosylate]: in [1], the mHTT level entry was “No decrease in mHTT level was observed”.

With `O=c1cc(-c2ccccc2)c2c(O)cc(O)cc2o1` [compound 4], the “mHTT level in cortices” value in data set [2] was “significantly reduced mHTT level”. The “level of SQSTM1/p62 in the cortices” value in data set [3] is “did not change”. For the same compound, the “binding to Q25-GFP” value in [4] is on record as “did not bind”. The “binding to GFP” value in [5] was “did not bind”. In data set [6], the “binding affinity to proteins with 38 or more glutamine repeats” value was “showed certain binding affinity”. Also, in [7], the “level of proteins containing expanded polyglutamine in cells (polyQ-GFP)” value is “can selectively reduce the level”. The “binding to MBP-ATXN3-Q28” value in data set [8] was “did not bind”. Moreover, in data set [9], the “binding affinity with normal ATXN3 protein (MBP-ATXN3-Q28)” value is “no binding affinity”. Besides, the “mutant ATXN3 protein level” value in data set [10] is “A decrease in mutant ATXN3 protein level was observed”. In [11], the “wild-type ATXN3 protein level” value was “no decrease in wild-type ATXN3 protein level was observed”. The “binding to His-ATXN1-Q92” value in data set [12] is recorded as “can bind”. Moreover, the “level of mutant ATXN1 protein (His-ATXN1-Q92)” value in data set [13] was “Decreased levels of mutant ATXN1 were observed”. The compound further gave a concentration at 2 h in data set [14] of 9.48 ng/g. For the same compound, the “binding affinity to Q25-GFP” value in data set [15] was “no binding affinity”. The “mHTT levels, comparison of FIG. 9” value in [1] is recorded as “reduces mHTT levels”. Also, the “binding to MBP-ATXN3-Q68” value in data set [16] is recorded as “binded”.

In the case of `CC(C)Oc1ccc(C(=O)N[C@H](CNC(=O)CN(C)C)Cc2ccc(-c3cn4cccc([C@H](C)O)c4n3)cc2)cc1Cl` [GSK923295], the mHTT level entry in data set [1] is given as “No decrease in mHTT level was observed”.

Regarding `COc1ccc(Oc2cc(NCCC(F)(F)F)c3ncc(-c4ccc(C(=O)NC5CC5)c(C)c4)n3n2)c(F)c1F` [BAY1217389], in [1], the mHTT level entry was “No decrease in mHTT level was observed” and the “mHTT levels, comparison of FIG. 9” value was “did not reduce mHTT levels”.

On to `CC(C)(C)c1nc(-c2cccc(NS(=O)(=O)c3c(F)cccc3F)c2F)c(-c2ccnc(N)n2)s1` [Dabrafenib], for which the mHTT level result in [1] is “No decrease in mHTT level was observed”.

With `CCCS(=O)(=O)Nc1ccc(F)c(C(=O)c2c[nH]c3ncc(Cl)cc23)c1F` [PLX-4720], in [1], the mHTT level entry was “No decrease in mHTT level was observed” and the “mHTT levels, comparison of FIG. 9” value was “did not reduce mHTT levels”.
